This is an account of results in PubChem BioAssay (NCI).

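Protocol summary: plate cells (96-well), add compound at 5 concentrations, incubate 48 h, interpolate endpoints linearly. At the GI50, growth is halved. TGI marks complete inhibition of growth.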

Holding throughout (experiment): NCI tumour cell line growth inhibition, 48 h
Test [1] relates to PC-3 prostate.
Test [2] has as its system NCI-H460 lung.
Test [3] deals with NCI-H522 lung.
Test [4] relates to MDA-MB-435.
In test [5] the test system is SN12C renal.
For test [6], the system named is NCI-H226 lung.
For test [7], the system named is MDA-MB-231 breast.
For test [8], the system named is KM12 colon.
Test [9] concerns OVCAR-8 ovarian.
The subject of test [10] is HCT-15 colon.

As to `COc1ccc(CC(NC(=O)[C@H](C)NC(=O)CN2CCOCC2)C(=O)N[C@@H](Cc2ccccc2)C(=O)[C@@]2(C)CO2)cc1` (some centres not stated), the GI50 in [1] is 0.229 µM; in test [2] it was 0.422 µM; in [3], 0.278 µM; in test [4], 0.069 µM; in test [5] it was 0.263 µM; in test [6], 0.246 µM. The GI50 was 0.24 µM in [7], 0.162 µM in test [8], 0.342 µM in [9] and 5.64 µM in [10]. Moreover, the TGI in [1] was 0.631 µM; in test [2] it was 1.96 µM; in test [3] it was 0.908 µM; in [4] it was 0.484 µM; in test [5], 1.53 µM; in test [6], 0.725 µM. Also, the figures for the TGI in test [7], in [8] and in test [10] were 1.1 µM, 0.338 µM and 76.3 µM, respectively.
As to `COc1cc(NCc2ccccc2O)c2ncccc2c1`, the GI50 is 10.6 µM in test [1]; 15.8 µM in [2]; 10.1 µM in [3]; 11.6 µM in [4]; 34 µM in [5]; 20.8 µM in [6]. Further, the GI50 in test [7] is 14.3 µM; in [8] it was 22.5 µM; in [9], 25.4 µM; in test [10], 7.09 µM. For the same compound, the TGI in test [1] was 90.6 µM; in [2], over 100 µM; in [3], 43 µM; in test [4], 37.9 µM; in test [5] it was over 100 µM; in [6], over 100 µM. Besides, the TGI in [7], in test [8], in test [9] and in [10] was over 100 µM each time.
For `O=C(O)c1cc(Cc2ccc(O)c(C(=O)O)c2)ccc1O` (tested in a mixture with another compound), the GI50 is 3.58 µM in test [1]; 3.53 µM in test [2]; 12.5 µM in test [3]; 4.2 µM in test [4]; 6.84 µM in [5]; 7.29 µM in test [6]. In addition, the GI50 is 3.25 µM in test [7], 4.39 µM in test [8], 2.41 µM in [9] and 3.35 µM in [10]. Further, the TGI in test [1] came out at 19.2 µM; in test [2], 17.4 µM; in [3], 33.8 µM; in test [4] it was 16 µM; in test [5], 20.6 µM; in test [6], 23.3 µM. In addition, the TGI came out at 12.2 µM in [7], 19.1 µM in test [8], 6.26 µM in test [9] and 17 µM in test [10].
In the case of `CC(=O)OC1CCC2(C)C(=CCC3C4CCC5(OC6CC(C)CN(C(C)=O)C6C5C)C(C)=C4C(=O)C32)C1` (configuration not stated), the TGI in test [1] was determined as 28.6 µM; in test [2] it was 35.1 µM; in [3], 29.4 µM; in test [4] it was 32 µM; in test [5] it was 46.5 µM; in test [6], 45.8 µM. Further, the TGI in test [7] worked out at 33.3 µM; in [8] it was 37.6 µM; in [9] it was 46.1 µM; in [10], 33.6 µM.
Turning to `COc1cc(C2=NN(c3ccc(S(N)(=O)=O)cc3)C(c3ccc(Cl)cc3)C2)cc(OC)c1OC` (configuration not stated), the GI50 is 3.05 µM in [1]; 3.95 µM in test [2]; 3.03 µM in test [3]; 3.74 µM in [4]; 6.67 µM in test [5]; 7.25 µM in [6]. Moreover, the GI50 in test [7] is 3.95 µM; in [8] it was 4.79 µM; in test [9], 4.85 µM; in test [10], 3.77 µM. Also, the TGI in test [1], in [2], in test [3], in [4], in test [5] and in test [6] was over 100 µM in each case. Moreover, the TGI in [7], in [8], in test [9] and in test [10] was over 100 µM each time.
Turning to `CC(CN1CCN(CC(C)Nc2ccnc3cc(Cl)ccc23)CC1)Nc1ccnc2cc(Cl)ccc12` (configuration not stated), the figures for the GI50 in [1], in test [4] and in test [7] were 3.04 µM, 2.74 µM and 2.72 µM, respectively. In addition, the TGI in test [1] is 57.2 µM; in [2], 14.3 µM; in [3], 21.3 µM; in test [4], 9.38 µM; in test [5] it was over 71.6 µM; in [6], over 69.5 µM. Further, the TGI was 7.52 µM in test [7], over 51.8 µM in [8], over 64 µM in [9] and 19.6 µM in test [10].
On to `Cc1cc(C)n(C(=O)c2nn(-c3ccc(Cl)cc3)cc2O)n1`, for which the GI50 was 7.05 µM in test [1]; 2.38 µM in test [2]; 7.37 µM in test [3]; 3.94 µM in [4]; 3.37 µM in test [5]; 4.66 µM in test [6]. Further, the GI50 in test [7] was 8.8 µM; in [8], 5.07 µM; in [9] it was 5.96 µM; in test [10], 3.53 µM. Besides, the TGI was over 100 µM in [1]; 6.04 µM in test [2]; 50.7 µM in test [3]; over 100 µM in test [4]; over 100 µM in test [5]; 98.9 µM in test [6]. Further, the TGI in test [7], in test [8], in [9] and in [10] was over 100 µM each time.
With `COc1cc(NCC2COc3c(ccc(OC)c3OC)C2=O)c([N+](=O)[O-])cc1OC` (configuration not stated), the TGI in test [1], in test [2], in [3], in [4], in [5] and in test [6] was over 100 µM each time. For the same compound, the TGI in test [7], in test [8], in [9] and in test [10] was over 100 µM throughout.
With `C[C@]12C3CC[C@@]4(CO)C[C@]3(CCC1[C@](C)(C(=O)O)CC[C@@H]2O)CC4=O` (some centres not stated), the GI50 in [1], in [2], in [3], in [4], in test [5] and in test [6] was over 100 µM in each case. The GI50 in test [7], in test [8], in test [9] and in test [10] was over 100 µM each time. The TGI in test [1], in [2], in test [3], in [4], in test [5] and in test [6] was over 100 µM in each case. In addition, the TGI in test [7], in test [8], in [9] and in [10] was over 100 µM each time.
Turning to `CCN(CC)CCOc1ccc2c(c1)C(=O)c1cc(OCCN(CC)CC)ccc1-2`, the GI50 in test [1] was 5.64 µM; in [2], 4.03 µM; in [3], 12.4 µM; in test [4], 12.9 µM; in [5], 12.6 µM; in test [6], 11.7 µM. The GI50 in [7] was 10.4 µM; in test [8], 5.36 µM; in test [9], 8 µM; in test [10] it was 12.1 µM. Besides, the TGI in [1] is 26.2 µM; in [2], 15.2 µM; in test [3], 27.5 µM; in test [4], 27.7 µM; in test [5], 45.1 µM; in test [6], 34.2 µM. For the same compound, the TGI was 33.8 µM in test [7], 24.9 µM in test [8], 54 µM in test [9] and 44.6 µM in [10].
For `COc1cc2cc(Oc3ccc(NC(=O)Nc4ccc(Cl)c(C(F)(F)F)c4)cc3)c(C)nc2cc1OC`, the GI50 was 0.781 µM in test [1]; 1.07 µM in [2]; 0.773 µM in test [3]; 1.03 µM in test [4]; 1.31 µM in test [5]; 1.27 µM in [6]. For the same compound, the GI50 in test [7] was 0.681 µM; in [8] it was 1.07 µM; in test [9], 1.04 µM; in test [10] it was 1.15 µM. Further, the TGI in test [1] came to 2.96 µM; in [2], 3.57 µM; in test [3], 2.65 µM; in test [4], 4.71 µM; in test [5], 6.12 µM; in test [6], 5.01 µM. Further, the TGI turned out to be 1.84 µM in [7], 3.85 µM in test [8], 4.55 µM in [9] and 4.86 µM in test [10].
As to `CO[C@@]12C[C@H]3[C@@H]([C@@H](O)[C@@H](OC(=O)/C=C/c4ccccc4)[C@@]4(O)C(C)(C)CCC[C@]34C)[C@@H](C)C1=CC(=O)O2`, the GI50 in [1] was 5.13 µM; in [2], 12.4 µM; in [3] it was 35.1 µM; in test [4], 4.85 µM; in test [5], 4.84 µM; in [6] it was 4.76 µM. The GI50 was 0.585 µM in [7], 6.74 µM in [8], 5.24 µM in test [9] and 4.51 µM in [10]. The TGI was 29.2 µM in [1]; 82.9 µM in test [2]; over 100 µM in [3]; 28.2 µM in test [4]; 19.5 µM in test [5]; 18.8 µM in test [6]. For the same compound, the TGI was 4.6 µM in [7], 28.6 µM in [8], 25.6 µM in [9] and 19.2 µM in test [10].
For `COC(=O)OCc1ccc2c(c1)C(=O)c1c-2n(CCCBr)c(=O)c2cc([N+](=O)[O-])ccc12`, the GI50 in test [1], in [2], in test [3], in test [4], in [5] and in test [6] was over 100 µM each time. The GI50 is 52.7 µM in [7], over 100 µM in [8], over 100 µM in test [9] and over 100 µM in test [10]. In addition, the TGI in [1], in test [2], in test [3], in [4], in [5] and in test [6] was over 100 µM in each case. The TGI in test [7], in [8], in [9] and in test [10] was over 100 µM each time.
With `NC(Cc1ccnnc1)C(=O)O` (configuration not stated), the TGI in test [1], in test [2], in test [3], in [4], in test [5] and in test [6] was over 100 µM each time. For the same compound, the TGI in [7], in test [8], in test [9] and in test [10] was over 100 µM each time.
`C1=C(c2ccccc2)C(c2ccc(OCCN3CCCCC3)cc2)Oc2ccccc21` (configuration not stated): the GI50 in test [1] was 1.79 µM; in test [2], 1.94 µM; in test [3], 1.59 µM; in test [4] it was 1.64 µM; in test [5] it was 1.92 µM; in test [6] it was 4.08 µM. In addition, the GI50 is 1.86 µM in [7], 1.74 µM in test [8], 2.3 µM in test [9] and 1.5 µM in test [10]. For the same compound, the TGI is 3.25 µM in [1]; 3.72 µM in [2]; 3.37 µM in test [3]; 3.03 µM in test [4]; 3.73 µM in test [5]; 16.7 µM in test [6]. Also, the TGI turned out to be 3.51 µM in test [7], 3.29 µM in test [8], 5.91 µM in test [9] and 2.99 µM in [10].
`CS(=O)(=O)CCn1c(=O)c(Oc2ccc(F)cc2F)cc2cnc(NC3CCOCC3)nc21`: the GI50 in [1], in test [2], in test [3], in test [4], in test [5] and in [6] was over 25 µM throughout. The GI50 in test [7], in test [8], in [9] and in [10] was over 25 µM each time. For the same compound, the TGI in test [1], in test [2], in test [3], in test [4], in [5] and in [6] was over 25 µM throughout. Further, the TGI in [7], in test [8], in [9] and in [10] was over 25 µM each time.
